Molecular target: human PD-L1 / Human PD-1 (Homo sapiens (Human), UniProt Q9NZQ7)
Test: Enzyme-Linked Immunosorbent Assay (ELISA), PD-1/PD-L1 binding
Settings: plate-coated human PD-L1, biotinylated human PD-1
How it was run: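 Plates were coated with human PD-L1 at […]. Biotinylated human PD-1 (0.3 μg/mL) was added with 1:5 serially diluted compound for 1 h at 37 °C. Bound PD-1 was detected with streptavidin-HRP (1 h) and TMB (20 min), with absorbance read at 450 nm.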

human PD-L1 / Human PD-1, sequence (Q9NZQ7 19-239): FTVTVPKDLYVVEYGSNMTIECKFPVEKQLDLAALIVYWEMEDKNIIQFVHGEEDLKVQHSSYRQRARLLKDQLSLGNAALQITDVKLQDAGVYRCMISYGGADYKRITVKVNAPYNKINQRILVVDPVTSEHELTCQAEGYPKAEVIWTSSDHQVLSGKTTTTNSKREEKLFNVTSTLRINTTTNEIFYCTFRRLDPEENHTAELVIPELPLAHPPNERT

SMILES | IC50 [nM]
Cc1c(OCCCN2CCC(CO)CC2)cccc1-c1cccc2c1CC[C@@H]2Oc1cc(OCc2cncc(C#N)c2)c(CN[C@H](C(=O)O)[C@@H](C)O)cc1Cl | < 5
Cc1c(OCCCN2CC(O)C2)cccc1-c1cccc2c1CC[C@@H]2Oc1cc(OCc2cncc(C#N)c2)c(CN[C@H](C(=O)O)[C@@H](C)O)cc1Cl | < 5
C[C@@](CO)(NCc1cc(Cl)c(O[C@H]2CCc3c(-c4cccc(OCCCN5CCC(O)CC5)c4Cl)cccc32)cc1OCc1cncc(C#N)c1)C(=O)O | < 5
N#Cc1cncc(COc2cc(O[C@H]3CCc4c(-c5cccc(OCCCN6CCC(O)CC6)c5Cl)cccc43)c(Cl)cc2CN[C@@H](CO)C(=O)O)c1 | < 5
C[C@@H](O)[C@H](NCc1cc(Cl)c(O[C@H]2CCc3c(-c4cccc(OCCCN5CCC(O)CC5)c4Cl)cccc32)cc1OCc1cncc(C#N)c1)C(=O)O | < 5
Cc1c(OCCCN2CCCCC2)cccc1-c1cccc2c1CC[C@@H]2Oc1cc(OCc2cc(C#N)cc(C#N)c2)c(CN[C@@H]2CCCC[C@@H]2O)cc1Cl | < 5
Cc1c(OCCCN2CCC(F)CC2)cccc1-c1cccc2c1CC[C@@H]2Oc1cc(OCc2cc(C#N)cc(C#N)c2)c(CN[C@@H]2CCC[C@@H]2O)cc1Cl | < 5
Cc1c(OCCCN2CCC(F)CC2)cccc1-c1cccc2c1CC[C@@H]2Oc1cc(OCc2cc(C#N)cc(C#N)c2)c(CN2CCC3(C2)NC(=O)NC3=O)cc1Cl (stereo partly drawn) | 5 to 500
Cc1c(OCCCN2CCC(F)CC2)cccc1-c1cccc2c1CC[C@@H]2Oc1cc(OCc2cc(C#N)cc(C#N)c2)c(CN[C@@H]2CCOC[C@H]2O)cc1Cl | < 5
Cc1c(OCCCN2CCC(F)CC2)cccc1-c1cccc2c1CC[C@@H]2Oc1cc(OCc2cc(C#N)cc(C#N)c2)c(CN[C@@H]2CCC[C@H]2O)cc1Cl | < 5
Cc1c(OCCCN2CCC(F)CC2)cccc1-c1cccc2c1CC[C@@H]2Oc1cc(OCc2cc(C#N)cc(C#N)c2)c(CN[C@H]2CCC[C@@H]2O)cc1Cl | < 5
N#Cc1cncc(COc2cc(O[C@H]3CCc4c(-c5cccc(OCCCN6CCC(F)CC6)c5Cl)cccc43)c(Cl)cc2CN2CC3(C2)NC(=O)NC3=O)c1 | < 5
N#Cc1cncc(COc2cc(O[C@H]3CCc4c(-c5cccc(OCCCN6CCC(F)CC6)c5Cl)cccc43)c(Cl)cc2CN[C@H]2CC[C@@H]2O)c1 | < 5
Cc1c(OCCCN2CCC(F)CC2)cccc1-c1cccc2c1CC[C@@H]2Oc1cc(OCc2cc(C#N)cc(C#N)c2)c(CN[C@H]2CCC[C@H]2O)cc1Cl | < 5
Cc1c(OCCCN2CCC(F)CC2)cccc1-c1cccc2c1CC[C@@H]2Oc1cc(OCc2cc(C#N)cc(C#N)c2)c(CN[C@H]2CCOC[C@H]2O)cc1Cl | < 5
Cc1c(OCCCN2CCC(F)CC2)cccc1-c1cccc2c1CC[C@@H]2Oc1cc(OCc2cc(C#N)cc(C#N)c2)c(CN[C@H]2CCC(=O)NC2)cc1Cl | 5 to 500
Cc1c(OCCCN2CCC(F)CC2)cccc1-c1cccc2c1CC[C@@H]2Oc1cc(OCc2cc(C#N)cc(C#N)c2)c(CN2CC3(C2)NC(=O)NC3=O)cc1Cl | 5 to 500
Cc1c(OCCCN2CCC(C)(F)CC2)cccc1-c1cccc2c1CC[C@@H]2Oc1cc(OCc2cc(C#N)cc(C#N)c2)c(CNC[C@H]2CCC(=O)N2)cc1Cl | 5 to 500
Cc1c(OCCCN2CCC(C)(F)CC2)cccc1-c1cccc2c1CC[C@@H]2Oc1cc(OCc2cc(C#N)cc(C#N)c2)c(CNC[C@@H]2CCC(=O)N2)cc1Cl | 5 to 500

SMILES | IC50 [nM]
N#Cc1cncc(COc2cc(O[C@H]3CCc4c(-c5cccc(OCCCN6CC7(CC(F)C7)C6)c5Cl)cccc43)c(Cl)cc2CN[C@H]2CCC[C@H]2O)c1 | < 5
N#Cc1cncc(COc2cc(O[C@H]3CCc4c(-c5cccc(OCCCN6CCC6)c5Cl)cccc43)c(Cl)cc2CN[C@@H]2CCCC[C@@H]2O)c1 | < 5
N#Cc1cncc(COc2cc(O[C@H]3CCc4c(-c5cccc(OCCCN6CC7(CC(F)C7)C6)c5Cl)cccc43)c(Cl)cc2CN[C@H]2CCC[C@@H]2O)c1 | < 5
N#Cc1cncc(COc2cc(O[C@H]3CCc4c(-c5cccc(OCCCN6CC7(CC(F)C7)C6)c5Cl)cccc43)c(Cl)cc2CN2CC3(C2)NC(=O)NC3=O)c1 | 5 to 500
N#Cc1cncc(COc2cc(O[C@H]3CCc4c(-c5cccc(OCCCN6CCC6)c5Cl)cccc43)c(Cl)cc2CNC[C@H]2CCC(=O)N2)c1 | < 5
N#Cc1cncc(COc2cc(O[C@H]3CCc4c(-c5cccc(OCCCN6CC7(CC(F)C7)C6)c5Cl)cccc43)c(Cl)cc2CNC[C@@H]2CCC(=O)N2)c1 | < 5
N#Cc1cncc(COc2cc(O[C@H]3CCc4c(-c5cccc(OCCCN6CC7(CC(F)C7)C6)c5Cl)cccc43)c(Cl)cc2CNC[C@H]2CCC(=O)N2)c1 | < 5
CN1CCC(COc2cccc(-c3cccc4c3CC[C@@H]4Oc3cc(OCc4cncc(C#N)c4)c(CN[C@@H]4CCCC[C@@H]4O)cc3Cl)c2Cl)C1 (stereo partly drawn) | < 5
CN1CCC(COc2cccc(-c3cccc4c3CC[C@@H]4Oc3cc(OCc4cncc(C#N)c4)c(CNC[C@H]4CCC(=O)N4)cc3Cl)c2Cl)C1 (stereo partly drawn) | < 5
N#Cc1cncc(COc2cc(O[C@H]3CCc4c(-c5cccc(OCCCN6CC7(C6)CC(F)(F)C7)c5Cl)cccc43)c(Cl)cc2CN[C@@H]2CCC[C@@H]2O)c1 | < 5
N#Cc1cncc(COc2cc(O[C@H]3CCc4c(-c5cccc(OCCCN6CC7(C6)CC(F)(F)C7)c5Cl)cccc43)c(Cl)cc2CN[C@@H]2CCC[C@H]2O)c1 | < 5
Cc1c(OCCCN2CC3(CCC3)C2)cccc1-c1cccc2c1CC[C@@H]2Oc1cc(OCc2cc(C#N)cc(C#N)c2)c(CNC[C@H]2CCC(=O)N2)cc1Cl | 5 to 500
N#Cc1cncc(COc2cc(O[C@H]3CCc4c(-c5cccc(OCCCN6CC7(C6)CC(F)(F)C7)c5Cl)cccc43)c(Cl)cc2CN[C@H]2CCC[C@H]2O)c1 | < 5
N#Cc1cncc(COc2cc(O[C@H]3CCc4c(-c5cccc(OCCCN6CC7(C6)CC(F)(F)C7)c5Cl)cccc43)c(Cl)cc2CN[C@H]2CCC[C@@H]2O)c1 | < 5
N#Cc1cncc(COc2cc(O[C@H]3CCc4c(-c5cccc(OCCCN6CC7(C6)CC(F)(F)C7)c5Cl)cccc43)c(Cl)cc2CN2CC3(C2)NC(=O)NC3=O)c1 | 5 to 500
Cc1c(OCCCN2CC3(CCC3)C2)cccc1-c1cccc2c1CC[C@@H]2Oc1cc(OCc2cc(C#N)cc(C#N)c2)c(CNC[C@@H]2CCC(=O)N2)cc1Cl | < 5
Cc1c(OCCCN2CCC(C)CC2)cccc1-c1cccc2c1CC[C@@H]2Oc1cc(OCc2cc(C#N)cc(C#N)c2)c(CNC[C@H]2CCC(=O)N2)cc1Cl | < 5
Cc1c(OCCCN2CCC(C)CC2)cccc1-c1cccc2c1CC[C@@H]2Oc1cc(OCc2cc(C#N)cc(C#N)c2)c(CNC[C@@H]2CCC(=O)N2)cc1Cl | < 5
Cc1c(OCCCN2CC3(CC(O)C3)C2)cccc1-c1cccc2c1CC[C@@H]2Oc1cc(OCc2cc(C#N)cc(C#N)c2)c(CNC[C@H]2CCC(=O)N2)cc1Cl | < 5

SMILES | IC50 [nM]
Cc1c(OCCCN2CC3(C2)CC(F)(F)C3)cccc1-c1cccc2c1CC[C@@H]2Oc1cc(OCc2cc(C#N)cc(C#N)c2)c(CNC[C@H]2CCC(=O)N2)cc1Cl | 5 to 500
Cc1c(OCCCN2CCC(C)(F)CC2)cccc1-c1cccc2c1CC[C@@H]2Oc1cc(OCc2cncc(C#N)c2)c(CNC[C@H]2CCC(=O)N2)cc1Cl | 5 to 500
Cc1c(OCCCN2CCC(C)(F)CC2)cccc1-c1cccc2c1CC[C@@H]2Oc1cc(OCc2cncc(C#N)c2)c(CNC[C@@H]2CCC(=O)N2)cc1Cl | < 5
N#Cc1cncc(COc2cc(O[C@H]3CCc4c(-c5cccc(OCCCN6CCC(F)CC6)c5Cl)cccc43)c(Cl)cc2CN[C@@H]2CC[C@H]2O)c1 | < 5
Cc1c(OCCCN2CCC(C)(F)CC2)cccc1-c1cccc2c1CC[C@@H]2Oc1cc(OCc2cncc(C#N)c2)c(CN[C@@H]2CCC(=O)NC2)cc1Cl | < 5
Cc1c(OCCCN2CCC(C)(F)CC2)cccc1-c1cccc2c1CC[C@@H]2Oc1cc(OCc2cncc(C#N)c2)c(CN[C@H]2CCC(=O)NC2)cc1Cl | 5 to 500
N#Cc1cncc(COc2cc(O[C@H]3CCc4c(-c5cccc(OCCCN6CC7(CC(F)C7)C6)c5Cl)cccc43)c(Cl)cc2CN[C@H]2CC[C@@H]2O)c1 | < 5
N#Cc1cncc(COc2cc(O[C@H]3CCc4c(-c5cccc(OCCCN6CC7(CC(F)C7)C6)c5Cl)cccc43)c(Cl)cc2CN[C@@H]2CC[C@H]2O)c1 | < 5
Cc1c(OCCCN2CC3(CC(F)C3)C2)cccc1-c1cccc2c1CC[C@@H]2Oc1cc(OCc2cc(C#N)cc(C#N)c2)c(CN[C@H]2CCC(=O)NC2)cc1Cl | < 5
Cc1c(OCCCN2CCC(F)CC2)cccc1-c1cccc2c1CC[C@@H]2Oc1cc(OCc2cc(C#N)cc(C#N)c2)c(CN[C@@H]2CCC(=O)NC2)cc1Cl | < 5
N#Cc1cncc(COc2cc(O[C@H]3CCc4c(-c5cccc(OCCCN6CC7(C6)CC(F)(F)C7)c5Cl)cccc43)c(Cl)cc2CN[C@H]2CC[C@@H]2O)c1 | 5 to 500
N#Cc1cncc(COc2cc(O[C@H]3CCc4c(-c5cccc(OCCCN6CC7(C6)CC(F)(F)C7)c5Cl)cccc43)c(Cl)cc2CN[C@@H]2CC[C@H]2O)c1 | < 5
Cc1c(OCCCN2[C@H](C)CCC[C@@H]2C)cccc1-c1cccc2c1CC[C@@H]2Oc1cc(OCc2cc(C#N)cc(C#N)c2)c(CNC[C@H]2CCC(=O)N2)cc1Cl | 5 to 500
Cc1c(OCCCN2CC(F)(F)C2)cccc1-c1cccc2c1CC[C@@H]2Oc1cc(OCc2cc(C#N)cc(C#N)c2)c(CNC[C@H]2CCC(=O)N2)cc1Cl | 5 to 500
N#Cc1cc(C#N)cc(COc2cc(O[C@H]3CCc4c(-c5cccc(OCCCN6CCC(F)CC6)c5Cl)cccc43)c(Cl)cc2CN[C@H]2CCC(=O)NC2)c1 | 5 to 500
CC1(F)CCN(CCCOc2cccc(-c3cccc4c3CC[C@@H]4Oc3cc(OCc4cc(C#N)cc(C#N)c4)c(CN[C@H]4CCC(=O)NC4)cc3Cl)c2Cl)CC1 | 5 to 500
Cc1c(OCCCN2CCCCC2)cccc1-c1cccc2c1CC[C@@H]2Oc1cc(OCc2cncc(C#N)c2)c(CNC[C@H]2CCC(=O)N2)cc1Cl | < 5
Cc1c(OCCCN2CCCCC2)cccc1-c1cccc2c1CC[C@@H]2Oc1cc(OCc2cncc(C#N)c2)c(CNC[C@@H]2CCC(=O)N2)cc1Cl | < 5
Cc1c(OCCCN2CCC(C)(O)CC2)cccc1-c1cccc2c1CC[C@@H]2Oc1cc(OCc2cc(C#N)cc(C#N)c2)c(CNC[C@@H]2CCC(=O)N2)cc1Cl | < 5
